# Read-outs that look alike come from different tables or passages of the source.
# Experiments:
# [1] = system: Key Broadleaf Weed and Crop Species; test: Post-emergent Test II herbicidal activity (Table 5); assay type: in vivo; details: for pest or weed control at 70 g/ha / pest or weed control at 140 g/ha: post-emergence, 336 h, 14 days after application
# Procedure: (§1) Post-emergent Test II: Seeds or nutlets of the desired test plant species were planted in Sun Gro Metro-Mix® 360 planting mixture, which typically has a pH of 6.0 to 6.8 and an organic matter content of about 30 percent, in plastic pots with a surface area of 64 square centimeters. When required to ensure good germination and healthy plants, a fungicide treatment and/or other chemical or physical treatment was applied. The plants were grown for 7-21 d in a greenhouse with an approximate 15 h photoperiod which was maintained at about 23-29° C. during the day and 22-28° C. during the night. Nutrients and water were added on a regular basis and supplemental lighting was provided with overhead metal halide 1000-Watt lamps as necessary. The plants were employed for testing when they reached the first or second true leaf stage.
# (§2) A weighed amount, determined by the highest rate to be tested, of each test compound was placed in a 25 mL glass vial and was dissolved in 4 mL of a 97:3 v/v mixture of acetone and DMSO to obtain concentrated stock solutions. […] The concentrated stock solutions obtained were diluted with 20 mL of an aqueous mixture containing acetone, water, isopropyl alcohol, DMSO. Atplus 411F crop oil concentrate, and Triton® X-155 surfactant in a 48.5:39:10:1.5:1.0:0.02 v/v ratio to obtain spray solutions containing the highest application rates. Additional application rates were obtained by serial dilution of 12 mL of the high rate solution into a solution containing 2 mL of 97:3 v/v mixture of acetone and DMSO and 10 mL of an aqueous mixture containing acetone, water, isopropyl alcohol, DMSO, Atplus 411F crop oil concentrate, and Triton X-155 surfactant in a 48.5:39:10:1.5:1.0:0.02 v/v ratio to obtain ½×, ¼×, ⅛× and 1/16× rates of the high rate. Compound requirements are based upon a 12 mL application volume at a rate of 187 liters per hectare (L/ha). Formulated compounds were applied to the plant material with an overhead Mandel track sprayer equipped with 8002E nozzles calibrated to deliver 187 L/ha over an application area of 0.503 square meters at a spray height of 18 inches (43 cm) above the average plant canopy height. Control plants were sprayed in the same manner with the solvent blank.
# (§3) The treated plants and control plants were placed in a greenhouse as described above and watered by subirrigation to prevent wash-off of the test compounds. After 14 d, the condition of the test plants as compared with that of the untreated plants was determined visually and scored on a scale of 0 to 100 percent where 0 corresponds to no injury and 100 corresponds to complete kill.
# [2] = system: Key Grass and Sedge Weeds as well as Grass Crops; test: Post-emergent Test II herbicidal activity (Table 6); assay type: in vivo; details: for Visual Growth Reduction (%) 14 Days After Application, SORVU: SORVU: sorghum (Sorghum vulgare); for pest or weed control at 70 g/ha / pest or weed control at 140 g/ha: post-emergence, 336 h
# Procedure: as §1, §2, §3
structure (smiles),measurement,setting,value
COC(=O)c1nc(-c2ccc([N+](=O)[O-])cc2F)c(F)c(N)c1Cl [Compound 80],"Visual Growth Reduction (%) 14 Days After Application, ABUTH","[1]; ABUTH: velvetleaf (Abutilon theophrasti), application rate 70 g ai/ha",G (0-29)
same,"Visual Growth Reduction (%) 14 Days After Application, ABUTH","[1]; ABUTH: velvetleaf (Abutilon theophrasti), application rate 140 g ai/ha",G (0-29)
same,"Visual Growth Reduction (%) 14 Days After Application, AMARE","[1]; AMARE: redroot pigweed (Amaranthus retroflexus), application rate 70 g ai/ha",D (60-74)
same,"Visual Growth Reduction (%) 14 Days After Application, AMARE","[1]; AMARE: redroot pigweed (Amaranthus retroflexus), application rate 140 g ai/ha",B (85-94)
same,"Visual Growth Reduction (%) 14 Days After Application, BRSNN","[1]; BRSNN: oilseed-rape, canola (Brassica napus), application rate 70 g ai/ha",G (0-29)
same,"Visual Growth Reduction (%) 14 Days After Application, BRSNN","[1]; BRSNN: oilseed-rape, canola (Brassica napus), application rate 140 g ai/ha",G (0-29)
same,"Visual Growth Reduction (%) 14 Days After Application, CHEAL","[1]; CHEAL: lambsquarters (Chenopodium album), application rate 70 g ai/ha",A (95-100)
same,"Visual Growth Reduction (%) 14 Days After Application, CHEAL","[1]; CHEAL: lambsquarters (Chenopodium album), application rate 140 g ai/ha",A (95-100)
same,"Visual Growth Reduction (%) 14 Days After Application, EPHHL","[1]; EPHHL: wild poinsettia (Euphorbia heterophylla), application rate 70 g ai/ha",C (75-84)
same,"Visual Growth Reduction (%) 14 Days After Application, EPHHL","[1]; EPHHL: wild poinsettia (Euphorbia heterophylla), application rate 140 g ai/ha",C (75-84)
same,"Visual Growth Reduction (%) 14 Days After Application, HELAN","[1]; HELAN: sunflower (Helianthus annuus), application rate 70 g ai/ha",D (60-74)
same,"Visual Growth Reduction (%) 14 Days After Application, HELAN","[1]; HELAN: sunflower (Helianthus annuus), application rate 140 g ai/ha",C (75-84)
same,"Visual Growth Reduction (%) 14 Days After Application, VIOTR","[1]; VIOTR: wild pansy (Viola tricolor), application rate 70 g ai/ha",G (0-29)
same,"Visual Growth Reduction (%) 14 Days After Application, VIOTR","[1]; VIOTR: wild pansy (Viola tricolor), application rate 140 g ai/ha",G (0-29)
same,"Visual Growth Reduction (%) 14 Days After Application, CYPES","[2]; CYPES: yellow nutsedge (Cyperus esculentus), 70 g ai/ha",G (0-29)
same,"Visual Growth Reduction (%) 14 Days After Application, CYPES","[2]; CYPES: yellow nutsedge (Cyperus esculentus), 140 g ai/ha",G (0-29)
same,"Visual Growth Reduction (%) 14 Days After Application, DIGSA","[2]; DIGSA: crabgrass (Digitaria sanguinalis), 70 g ai/ha",G (0-29)
same,"Visual Growth Reduction (%) 14 Days After Application, DIGSA","[2]; DIGSA: crabgrass (Digitaria sanguinalis), 140 g ai/ha",G (0-29)
same,"Visual Growth Reduction (%) 14 Days After Application, ECHCG","[2]; ECHCG: barnyardgrass (Echinochloa crus-galli), 70 g ai/ha",G (0-29)
same,"Visual Growth Reduction (%) 14 Days After Application, ECHCG","[2]; ECHCG: barnyardgrass (Echinochloa crus-galli), 140 g ai/ha",G (0-29)
same,"Visual Growth Reduction (%) 14 Days After Application, ORYSA","[2]; ORYSA: rice (Oryza sativa), crop, 70 g ai/ha",G (0-29)
same,"Visual Growth Reduction (%) 14 Days After Application, ORYSA","[2]; ORYSA: rice (Oryza sativa), crop, 140 g ai/ha",G (0-29)
same,"Visual Growth Reduction (%) 14 Days After Application, SETFA","[2]; SETFA: giant foxtail (Setaria faberi), 70 g ai/ha",G (0-29)
same,"Visual Growth Reduction (%) 14 Days After Application, SETFA","[2]; SETFA: giant foxtail (Setaria faberi), 140 g ai/ha",G (0-29)
same,"Visual Growth Reduction (%) 14 Days After Application, SORVU",[2]; 70 g ai/ha,G (0-29)
same,"Visual Growth Reduction (%) 14 Days After Application, SORVU",[2]; 140 g ai/ha,G (0-29)
same,"Visual Growth Reduction (%) 14 Days After Application, TRZSS","[2]; TRZSS (wheat, Triticum aestivum), crop, 70 g ai/ha",G (0-29)
same,"Visual Growth Reduction (%) 14 Days After Application, TRZSS","[2]; TRZSS (wheat, Triticum aestivum), crop, 140 g ai/ha",G (0-29)
same,"Visual Growth Reduction (%) 14 Days After Application, ZEAMX","[2]; ZEAMX: maize, corn (Zea mays), crop, 70 g ai/ha",G (0-29)
same,"Visual Growth Reduction (%) 14 Days After Application, ZEAMX","[2]; ZEAMX: maize, corn (Zea mays), crop, 140 g ai/ha",G (0-29)
COc1c(N)nc(-c2ccc(I)cc2)nc1C(=O)O [Compound 88],pest or weed control at 70 g/ha,"[1]; ABUTH: velvetleaf (Abutilon theophrasti), application rate 70 g ai/ha, read-out: Visual Growth Reduction (%) 14 Days After Application, ABUTH",75 to 84%
same,pest or weed control at 140 g/ha,"[1]; ABUTH: velvetleaf (Abutilon theophrasti), application rate 140 g ai/ha, read-out: Visual Growth Reduction (%) 14 Days After Application, ABUTH",95 to 100%
same,pest or weed control at 70 g/ha,"[1]; AMARE: redroot pigweed (Amaranthus retroflexus), application rate 70 g ai/ha, read-out: Visual Growth Reduction (%) 14 Days After Application, AMARE",85 to 94%
same,pest or weed control at 140 g/ha,"[1]; AMARE: redroot pigweed (Amaranthus retroflexus), application rate 140 g ai/ha, read-out: Visual Growth Reduction (%) 14 Days After Application, AMARE",85 to 94%
same,pest or weed control at 70 g/ha,"[1]; BRSNN: oilseed-rape, canola (Brassica napus), application rate 70 g ai/ha, read-out: Visual Growth Reduction (%) 14 Days After Application, BRSNN",95 to 100%
same,pest or weed control at 140 g/ha,"[1]; BRSNN: oilseed-rape, canola (Brassica napus), application rate 140 g ai/ha, read-out: Visual Growth Reduction (%) 14 Days After Application, BRSNN",95 to 100%
same,pest or weed control at 140 g/ha,"[1]; CHEAL: lambsquarters (Chenopodium album), application rate 140 g ai/ha, read-out: Visual Growth Reduction (%) 14 Days After Application, CHEAL",95 to 100%
same,pest or weed control at 70 g/ha,"[1]; EPHHL: wild poinsettia (Euphorbia heterophylla), application rate 70 g ai/ha, read-out: Visual Growth Reduction (%) 14 Days After Application, EPHHL",95 to 100%
same,pest or weed control at 140 g/ha,"[1]; EPHHL: wild poinsettia (Euphorbia heterophylla), application rate 140 g ai/ha, read-out: Visual Growth Reduction (%) 14 Days After Application, EPHHL",95 to 100%
same,pest or weed control at 70 g/ha,"[1]; HELAN: sunflower (Helianthus annuus), application rate 70 g ai/ha, read-out: Visual Growth Reduction (%) 14 Days After Application, HELAN",85 to 94%
same,pest or weed control at 140 g/ha,"[1]; HELAN: sunflower (Helianthus annuus), application rate 140 g ai/ha, read-out: Visual Growth Reduction (%) 14 Days After Application, HELAN",85 to 94%
same,pest or weed control at 70 g/ha,"[1]; VIOTR: wild pansy (Viola tricolor), application rate 70 g ai/ha, read-out: Visual Growth Reduction (%) 14 Days After Application, VIOTR",45 to 59%
same,pest or weed control at 140 g/ha,"[1]; VIOTR: wild pansy (Viola tricolor), application rate 140 g ai/ha, read-out: Visual Growth Reduction (%) 14 Days After Application, VIOTR",60 to 74%
same,pest or weed control at 70 g/ha,"[2]; CYPES: yellow nutsedge (Cyperus esculentus), 70 g ai/ha, read-out: Visual Growth Reduction (%) 14 Days After Application, CYPES",85 to 94%
same,pest or weed control at 140 g/ha,"[2]; CYPES: yellow nutsedge (Cyperus esculentus), 140 g ai/ha, read-out: Visual Growth Reduction (%) 14 Days After Application, CYPES",95 to 100%
same,pest or weed control at 70 g/ha,"[2]; DIGSA: crabgrass (Digitaria sanguinalis), 70 g ai/ha, read-out: Visual Growth Reduction (%) 14 Days After Application, DIGSA",0 to 29%
same,pest or weed control at 140 g/ha,"[2]; DIGSA: crabgrass (Digitaria sanguinalis), 140 g ai/ha, read-out: Visual Growth Reduction (%) 14 Days After Application, DIGSA",0 to 29%
same,pest or weed control at 70 g/ha,"[2]; ECHCG: barnyardgrass (Echinochloa crus-galli), 70 g ai/ha, read-out: Visual Growth Reduction (%) 14 Days After Application, ECHCG",75 to 84%
same,pest or weed control at 140 g/ha,"[2]; ECHCG: barnyardgrass (Echinochloa crus-galli), 140 g ai/ha, read-out: Visual Growth Reduction (%) 14 Days After Application, ECHCG",75 to 84%
same,pest or weed control at 70 g/ha,"[2]; ORYSA: rice (Oryza sativa), crop, 70 g ai/ha, read-out: Visual Growth Reduction (%) 14 Days After Application, ORYSA",0 to 29%
same,pest or weed control at 140 g/ha,"[2]; ORYSA: rice (Oryza sativa), crop, 140 g ai/ha, read-out: Visual Growth Reduction (%) 14 Days After Application, ORYSA",0 to 29%
same,pest or weed control at 70 g/ha,"[2]; SETFA: giant foxtail (Setaria faberi), 70 g ai/ha, read-out: Visual Growth Reduction (%) 14 Days After Application, SETFA",60 to 74%
same,pest or weed control at 140 g/ha,"[2]; SETFA: giant foxtail (Setaria faberi), 140 g ai/ha, read-out: Visual Growth Reduction (%) 14 Days After Application, SETFA",85 to 94%
same,pest or weed control at 70 g/ha,"[2]; SORVU: grain sorghum (Sorghum vulgare), 70 g ai/ha, read-out: Visual Growth Reduction (%) 14 Days After Application, SORVU",75 to 84%
same,pest or weed control at 140 g/ha,"[2]; SORVU: grain sorghum (Sorghum vulgare), 140 g ai/ha, read-out: Visual Growth Reduction (%) 14 Days After Application, SORVU",85 to 94%
same,pest or weed control at 70 g/ha,"[2]; TRZSS (wheat, Triticum aestivum), crop, 70 g ai/ha, read-out: Visual Growth Reduction (%) 14 Days After Application, TRZSS",60 to 74%
same,pest or weed control at 140 g/ha,"[2]; TRZSS (wheat, Triticum aestivum), crop, 140 g ai/ha, read-out: Visual Growth Reduction (%) 14 Days After Application, TRZSS",60 to 74%
same,pest or weed control at 70 g/ha,"[2]; ZEAMX: maize, corn (Zea mays), crop, 70 g ai/ha, read-out: Visual Growth Reduction (%) 14 Days After Application, ZEAMX",45 to 59%
same,pest or weed control at 140 g/ha,"[2]; ZEAMX: maize, corn (Zea mays), crop, 140 g ai/ha, read-out: Visual Growth Reduction (%) 14 Days After Application, ZEAMX",45 to 59%
